Data published in US20060234373A1, “Treatment for diabetes” (priority 2002, published 2006).
Marks after values point to notes of the source that are not given here.

Assays:
normal Wistar rats = test: Pancreatic insulin content in normal rats treated with TGF-α and gastrin; type: in vivo, rat; conditions: 0.8 μg/day each i.p. for 10 days, mean±SEM
Protocol: Normal Wistar and Zucker rats were allowed normal chow ad libidum with free access to water and were acclimatized for one week prior to initiation of each study. Freshly prepared streptozotocin at a dose of 80 mg/kg body weight was administered by I.V. five to seven days after induction of diabetes, the rats were randomly allocated into groups for subsequent treatment. In examples 1-4, TGF-α and rat gastrin were reconstituted in sterile normal saline containing 0.1% BSA. According to the predetermined treatment schedule for different studies, each animal received a single, daily i.p. injection of either TGF-α or gastrin alone (4.0 μg/kg body weight) or as a 1:1 (w/w) combination (total 8.0 μg/kg) or PBS for a period of 10 days. […]
At the end of the study period (10 days), all animals were sacrificed and samples of pancreas taken as follows: five biopsy specimens (1-2 mg) of pancreatic tissue were taken from separate representative sites in each rat pancreas and immediately snap frozen in liquid nitrogen for analysis of insulin content. […] Pancreatic insulin content values were corrected according to protein content and finally expressed as μg insulin/mg pancreatic protein. All values calculated as mean±SEM and statistical significance evaluated using Student's 2-sample t-test.

isolated human islets = test: β-cell population of isolated human islets maintained in culture; type: cell-based
Protocol: The purpose of this experiment was to determine whether treatment with EGF and gastrin can increase the β-cell population of human islets in vitro and by what mechanism. Islet cell preparations were isolated from human donor pancreases (n=5) and prepared according to the approved protocol used for preparation of human islets for islet cell transplantation (Lakey JRT et al (1999) Cell transplant 8:285-292, and Ricordi C. et al. (1988) Diabetes 37:413-420). Islet cells were seeded at a concentration of 1×10^6 cells per dish and cultured for 4 weeks in serum free-MEM medium alone or supplemented with EGF (0.3 μg/ml), gastrin (1.0 μg/ml), or EGF+gastrin in combination for 4 weeks and maintained in culture for an additional 4 weeks.

Substance | Pancreatic Insulin Content (normal Wistar rats) | β-cell mass change (isolated human islets; after 4 weeks culture, EGF 0.3 μg/ml, gastrin 1.0 μg/ml, medium alone −60%) [%] | induction of PDX-1 expression on CK19+ ductal cells (isolated human islets; human islets in culture)
Gastrin | 51.4 +/− 14.0** μg insulin/mg protein | −1 | mainly responsible for induction of PDX-1 expression
TGF-α: recombinant Human TGF-α, an EGF receptor ligand | 30.4 +/− 7.4* μg insulin/mg protein | – | –
